Data from patent US12528786B2, “Plasma kallikrein inhibitors” (Merck Sharp & Dohme LLC, priority 2020, dated 2026).

These compounds were tested against T1, Human plasma kallikrein (Homo sapiens, UniProt P03952) (assay: Kallikrein Assay (fluorogenic substrate hydrolysis, AFC release)). Conditions: purified Human plasma kallikrein 0.5 nM; substrate Acetyl-K—P—R-AFC 100 mM; 50 mM HEPES pH 7.4.
T1 construct: yields a heavy chain (371 amino acids) and a light chain (248 amino acids); purchased Enzyme Research Laboratories
Assay type: biochemical
In short: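 Purified human plasma kallikrein (0.5 nM final) with Acetyl-K-P-R-AFC substrate (final ≤0.2 Km) in 50 mM HEPES pH 7.4, 150 mM NaCl, 5 mM CaCl2, 0.1% PEG 8000, after enzyme–inhibitor equilibration; room temperature or 37° C. AFC fluorescence (405 Ex/510 Em nm) under linear conditions; IC50 by four-parameter fit, Ki via Cheng-Prusoff.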

T1 sequence (P03952 391-638 limits assumed): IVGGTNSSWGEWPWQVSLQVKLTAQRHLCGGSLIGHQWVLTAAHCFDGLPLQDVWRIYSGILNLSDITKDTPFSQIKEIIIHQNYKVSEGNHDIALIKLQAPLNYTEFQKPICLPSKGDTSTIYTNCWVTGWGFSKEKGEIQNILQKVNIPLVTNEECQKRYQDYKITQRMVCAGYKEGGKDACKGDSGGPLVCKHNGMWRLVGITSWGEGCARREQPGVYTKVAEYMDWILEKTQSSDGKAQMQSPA
T1 sequence (P03952 20-390 partner limits assumed): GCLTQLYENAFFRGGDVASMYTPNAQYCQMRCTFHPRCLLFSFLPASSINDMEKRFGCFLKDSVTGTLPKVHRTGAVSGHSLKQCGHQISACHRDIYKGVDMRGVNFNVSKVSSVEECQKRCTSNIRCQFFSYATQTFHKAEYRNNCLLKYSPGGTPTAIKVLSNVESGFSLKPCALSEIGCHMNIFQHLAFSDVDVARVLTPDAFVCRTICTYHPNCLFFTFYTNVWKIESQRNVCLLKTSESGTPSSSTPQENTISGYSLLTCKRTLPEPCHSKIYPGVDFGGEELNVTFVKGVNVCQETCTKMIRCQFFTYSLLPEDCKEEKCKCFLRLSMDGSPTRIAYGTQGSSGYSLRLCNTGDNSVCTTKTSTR

Compound | IC50 [nM]
CC(c1ccc(N2C[C@H]3C[C@H]3C2=O)nc1)n1cc(C(=O)N[C@H]2C[C@@H](c3cc(Cl)ccc3C#N)C2)nn1 (single isomer, unassigned) [Example 58, N-((cis)-3-(5-chloro-2-cyanophenyl)cyclobutyl)-1-((S or R)-1-(6-((1R,5S)-2-oxo-3-azabicyclo[3.1.0]hexan-3-yl)pyridin-3-yl)ethyl)-1H-1,2,3-triazole-4-carboxamide] | 5
Cc1cc(N2C[C@H]3C[C@H]3C2=O)ncc1C(C)n1cc(C(=O)N[C@H]2C[C@@H](c3cc(Cl)ccc3C#N)C2)nn1 (single isomer, unassigned) [Example 59, N-((cis)-3-(5-chloro-2-cyanophenyl)cyclobutyl)-1-((R or S)-1-(4-methyl-6-((1R,5S)-2-oxo-3-azabicyclo[3.1.0]hexan-3-yl)pyridin-3-yl)ethyl)-1H-1,2,3-triazole-4-carboxamide] | 0.6
Cc1cc(N2C[C@H]3C[C@H]3C2=O)ncc1C(C)n1cc(C(=O)N[C@H]2C[C@@H](c3cc(Cl)ccc3C#N)C2)nn1 (single isomer, unassigned) [Example 60, N-((cis)-3-(5-chloro-2-cyanophenyl)cyclobutyl)-1-((S or R)-1-(4-methyl-6-((1R,5S)-2-oxo-3-azabicyclo[3.1.0]hexan-3-yl)pyridin-3-yl)ethyl)-1H-1,2,3-triazole-4-carboxamide] | 14.6
Cc1cc(N2C[C@H]3C[C@H]3C2=O)ncc1C(C)n1cc(C(=O)N[C@@H]2CC[C@H](c3cc(Cl)ccc3C#N)C2)nn1 (single isomer, unassigned) [Example 62, N-((1R,3S)-3-(5-chloro-2-cyanophenyl)cyclopentyl)-1-((R or S)-1-(4-methyl-6-((1R,5S)-2-oxo-3-azabicyclo[3.1.0]hexan-3-yl)pyridin-3-yl)ethyl)-1H-1,2,3-triazole-4-carboxamide] | 2710
Cc1cc(N2C[C@H]3C[C@H]3C2=O)ncc1C(C)n1cc(C(=O)N[C@@H]2CC[C@H](c3cc(Cl)ccc3C#N)C2)nn1 (single isomer, unassigned) [Example 63, N-((1R,3S)-3-(5-chloro-2-cyanophenyl)cyclopentyl)-1-((S or R)-1-(4-methyl-6-((1R,5S)-2-oxo-3-azabicyclo[3.1.0]hexan-3-yl)pyridin-3-yl)ethyl)-1H-1,2,3-triazole-4-carboxamide] | 26
Cc1cc(N2C[C@H]3C[C@H]3C2=O)ncc1C(C)n1cc(C(=O)N[C@H]2C[C@@](C)(c3cc(Cl)ccc3C#N)C2)nn1 (single isomer, unassigned) [Example 64, N-((cis)-3-(5-chloro-2-cyanophenyl)-3-methylcyclobutyl)-1-((R or S)-1-(4-methyl-6-((1R,5S)-2-oxo-3-azabicyclo[3.1.0]hexan-3-yl)pyridin-3-yl)ethyl)-1H-1,2,3-triazole-4-carboxamide] | 15.9
Cc1cc(N2C[C@H]3C[C@H]3C2=O)ncc1C(C)n1cc(C(=O)N[C@H]2C[C@@](C)(c3cc(Cl)ccc3C#N)C2)nn1 (single isomer, unassigned) [Example 65, N-((cis)-3-(5-chloro-2-cyanophenyl)-3-methylcyclobutyl)-1-((S or R)-1-(4-methyl-6-((1R,5S)-2-oxo-3-azabicyclo[3.1.0]hexan-3-yl)pyridin-3-yl)ethyl)-1H-1,2,3-triazole-4-carboxamide] | 0.3
Cc1ccc(C#N)c([C@H]2C[C@@H](NC(=O)c3cn(C(C)c4cnc(N5C[C@H]6C[C@H]6C5=O)cc4C)nn3)C2)c1 (single isomer, unassigned) [Example 66, N-((cis)-3-(2-cyano-5-methylphenyl)cyclobutyl)-1-((R or S)-1-(4-methyl-6-((1R,5S)-2-oxo-3-azabicyclo[3.1.0]hexan-3-yl)pyridin-3-yl)ethyl)-1H-1,2,3-triazole-4-carboxamide] | 62.6
